Test results reported in publication PMC9267659, “Directed Evolution of Phi Class Glutathione Transferases Involved in Multiple-Herbicide Resistance of Grass Weeds and Crops” (International Journal of Molecular Sciences, 2022).
Substitutions are numbered along the chain they refer to.

Experiments:
TdGSTF [1] = target: T1, TdGSTF (Triticum turgidum, UniProt A0A9R0QM20); experiment: steady-state kinetics, CDNB conjugation; assay type: biochemical; details: read-out: S0.5 (mM) / CDNB; co-substrate GSH; 0.1 M sodium phosphate pH 6.5, 37 °C; positive cooperativity, nH 1.43
T1 construct: gene TRITD_1Bv1G036980; full length, pEXP5-CT/TOPO template, His-tagged, E. coli, Ni-IDA-Sepharose purified, homodimer
T1 sequence (A0A9R0QM20 1-219): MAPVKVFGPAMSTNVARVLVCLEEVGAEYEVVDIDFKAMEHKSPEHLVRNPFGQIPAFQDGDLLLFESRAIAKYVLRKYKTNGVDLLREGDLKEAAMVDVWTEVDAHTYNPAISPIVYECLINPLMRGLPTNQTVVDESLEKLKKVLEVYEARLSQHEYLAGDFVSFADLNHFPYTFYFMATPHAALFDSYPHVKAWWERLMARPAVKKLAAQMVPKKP
Description: steady-state kinetics, CDNB conjugation on TdGSTF

LrGSTF [2] = target: T2, LrGSTF (Lolium rigidum, UniProt M5BPX4); experiment: steady-state kinetics, CDNB conjugation; assay type: biochemical; details: read-out: S0.5 (mM) / CDNB; co-substrate GSH; 0.1 M sodium phosphate pH 6.5, 37 °C; positive cooperativity, nH 1.41
T2 construct: gene GST; full length, synthetic gene, His-tagged (C-His vector), E. coli, Ni-IDA-Sepharose purified, homodimer
T2 sequence (M5BPX4 1-219): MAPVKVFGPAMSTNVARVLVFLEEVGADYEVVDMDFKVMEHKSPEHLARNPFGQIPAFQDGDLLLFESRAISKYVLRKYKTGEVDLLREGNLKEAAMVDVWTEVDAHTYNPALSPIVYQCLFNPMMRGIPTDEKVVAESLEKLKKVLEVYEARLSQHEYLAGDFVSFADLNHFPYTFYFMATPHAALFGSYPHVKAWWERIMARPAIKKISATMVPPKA
Description: steady-state kinetics, CDNB conjugation on LrGSTF

HvGSTF [3] = target: T3, HvGSTF (Hordeum vulgare, UniProt Q8VWW3); experiment: steady-state kinetics, CDNB conjugation; assay type: biochemical; details: read-out: S0.5 (mM) / CDNB; co-substrate GSH; 0.1 M sodium phosphate pH 6.5, 37 °C; positive cooperativity, nH 1.46
T3 construct: gene GST6; full length, pEXP5-CT/TOPO template, His-tagged, E. coli, Ni-IDA-Sepharose purified, homodimer
T3 sequence (Q8VWW3 1-219): T1 sequence (A0A9R0QM20 1-219) with N82D, G83E, D91N, I113L, E158K, R200S, V207I
Description: steady-state kinetics, CDNB conjugation on HvGSTF

sh101 [4] = tested on: T4, sh101; experiment: steady-state kinetics, CDNB conjugation; assay type: biochemical, Alopecurus myosuroides; details: co-substrate GSH; 0.1 M sodium phosphate pH 6.5, 37 °C; nH 1.1; read-out: S0.5 (mM) / CDNB
T4 construct: gene AmGSTF; DNA-shuffled GSTF, 11 mutations vs AmGSTF (named in text: S90G, E93K, Q119E, F122I, M125L, DEK132-134NQT)
Description: steady-state kinetics, CDNB conjugation on sh101

sh155 [5] = tested on: T5, sh155; experiment: steady-state kinetics, CDNB conjugation; assay type: biochemical, Alopecurus myosuroides; details: co-substrate GSH; 0.1 M sodium phosphate pH 6.5, 37 °C; nH 1.02; read-out: S0.5 (mM) / CDNB
T5 construct: gene AmGSTF; DNA-shuffled GSTF, 17 mutations vs AmGSTF (named in text: S90G, E93K, Q119E, F122I, M125L, DEK132-134NQT)
Description: steady-state kinetics, CDNB conjugation on sh155

AmGSTF [6] = target: T6, AmGSTF (Alopecurus myosuroides, UniProt Q9ZS17); experiment: steady-state kinetics, CDNB conjugation; assay type: biochemical; details: read-out: S0.5 (mM) / CDNB; co-substrate GSH; 0.1 M sodium phosphate pH 6.5, 37 °C; positive cooperativity, nH 1.5
T6 construct: gene GST2c; full length, synthetic gene, His-tagged (C-His vector), E. coli, Ni-IDA-Sepharose purified, homodimer
T6 sequence (Q9ZS17 1-219): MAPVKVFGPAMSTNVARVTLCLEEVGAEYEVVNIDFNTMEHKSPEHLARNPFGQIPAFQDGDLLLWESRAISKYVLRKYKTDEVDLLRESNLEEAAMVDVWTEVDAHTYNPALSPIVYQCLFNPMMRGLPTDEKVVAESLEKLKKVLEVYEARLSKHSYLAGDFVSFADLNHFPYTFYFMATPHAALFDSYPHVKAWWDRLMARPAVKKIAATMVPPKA
Description: steady-state kinetics, CDNB conjugation on AmGSTF

sh101 [7] = tested on: T4, sh101; experiment: dose-response inhibition of GST activity; assay type: biochemical, Alopecurus myosuroides
Description: dose-response inhibition of GST activity on sh101

sh49 = tested on: T7, sh49; experiment: dose-response inhibition of GST activity; assay type: biochemical, Alopecurus myosuroides
T7 construct: gene AmGSTF; keeps F122, M125, E93 and DEK132-134 of AmGSTF; C-His, E. coli, dimer
Description: dose-response inhibition of GST activity on sh49

AmGSTF [8] = target: T6, AmGSTF; experiment: dose-response inhibition of GST activity; assay type: biochemical
Description: dose-response inhibition of GST activity on AmGSTF

sh168 = tested on: T8, sh168; experiment: dose-response inhibition of GST activity; assay type: biochemical, Alopecurus myosuroides
T8 construct: gene AmGSTF; has K93; keeps F122, M125 and DEK132-134 of AmGSTF; C-His, E. coli, dimer
Description: dose-response inhibition of GST activity on sh168

TdGSTF [9] = target: T1, TdGSTF; experiment: dose-response inhibition of GST activity; assay type: biochemical
Description: dose-response inhibition of GST activity on TdGSTF

LrGSTF [10] = target: T2, LrGSTF; experiment: dose-response inhibition of GST activity; assay type: biochemical
Description: dose-response inhibition of GST activity on LrGSTF

HvGSTF [11] = target: T3, HvGSTF; experiment: dose-response inhibition of GST activity; assay type: biochemical
Description: dose-response inhibition of GST activity on HvGSTF

sh155 [12] = tested on: T5, sh155; experiment: dose-response inhibition of GST activity; assay type: biochemical, Alopecurus myosuroides
Description: dose-response inhibition of GST activity on sh155

SMILES | Km (TdGSTF [1]) | Km (LrGSTF [2]) | Km (HvGSTF [3]) | Km (sh101 [4]) | Km (sh155 [5]) | Km (AmGSTF [6]) | IC50 (sh101 [7]) | IC50 (sh49) | IC50 (AmGSTF [8]) | IC50 (sh168) | IC50 (TdGSTF [9]) | IC50 (LrGSTF [10]) | IC50 (HvGSTF [11]) | IC50 (sh155 [12])
O=[N+]([O-])c1ccc(Cl)c([N+](=O)[O-])c1 [CDNB] | 0.51 ± 0.02 mM | 0.76 ± 0.04 mM | 0.52 ± 0.01 mM | 0.41 ± 0.02 mM | 0.77 ± 0.06 mM | 0.65 ± 0.03 mM |  |  |  |  |  |  |  | 
CCCCOCN(C(=O)CCl)c1c(CC)cccc1CC [butachlor] |  |  |  |  |  |  | 5.9 ± 0.4 µM | 2.6 ± 0.04 µM | 7.3 ± 0.4 µM | 3.1 ± 0.08 µM | 9.9 ± 0.2 µM | 7.1 ± 0.5 µM | 9.2 ± 0.6 µM | 3.4 ± 0.1 µM
